The values below are quoted from earlier work in patent US20190038644A1, “PREPARATION FOR NASAL-NASOPHARYNGEAL TREATMENT” (priority 2017, published 2019).

For data set [1], the system named is E. coli adherence to human uroepithelial cells. As to conditions: addition of 2.5% D-mannose to E. coli uroepithelial cell suspensions; even when epithelial cells highly receptive.
The test system of data set [2] is E. Coli and other bacteria. As to conditions: versus fructose in cranberries.
For data set [3] the following is noted: not metabolized like other sugars, does not alter blood sugar levels.

The structures appear in SMILES notation.

As to `O=C[C@@H](O)[C@@H](O)[C@H](O)[C@H](O)CO` [D-mannose], the “inhibition of adherence of E. coli to uroepithelial cells” value in data set [1] was “completely inhibited adherence”. Further, the “activity in inhibiting adherence relative to the fructose in cranberries” value in data set [2] is listed as 10 times. For the same molecule, the “entry into blood stream” value in data set [3] was “does not enter the blood stream”.
